Non-standard residues stand in square brackets, D forms with d. Residues, ends and D or L forms follow the SMILES beside them. No end group written: not given here.
Legend:
[1] = molecular target: T1, Duffy Antigen Receptor for Chemokines (DARC) (Homo sapiens, UniProt Q16570); test: DARC binding: competition with 125I-MCP-1 on red blood cells; settings: for DARC binding (µM): ns = not significantly different from control, >100 = not determined
T1 sequence (Q16570 1-336): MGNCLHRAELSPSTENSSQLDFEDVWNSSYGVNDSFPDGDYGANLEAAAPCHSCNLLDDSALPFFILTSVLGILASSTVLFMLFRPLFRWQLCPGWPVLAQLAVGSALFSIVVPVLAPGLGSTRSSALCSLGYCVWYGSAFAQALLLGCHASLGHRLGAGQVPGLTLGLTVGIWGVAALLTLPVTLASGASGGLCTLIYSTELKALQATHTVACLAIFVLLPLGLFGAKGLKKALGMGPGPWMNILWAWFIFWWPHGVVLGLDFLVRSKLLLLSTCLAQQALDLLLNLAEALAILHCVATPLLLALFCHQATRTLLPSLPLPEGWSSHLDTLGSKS

[2] = test system: MCP-1 induced THP-1 migration; test: THP-1 trans-well migration assay, MCP-1 as chemoattractant; assay type: cell-based, human
Description: (§1) To determine whether an agent inhibits a chemokine-induced activity, such as macrophage recruitment, varying amounts of the agent are mixed with cells in the presence of a known chemoattractant. For example, a range of known concentrations of an agent, e.g., a chemokine peptide, is incubated with a defined number (e.g., 10^4 - […]) of human THP-1 monocyte cells in individual wells of the top compartment of a trans-well plate. Chemokine (such as MCP-1, MIP1α, IL8 or SDF-1α), at a concentration known to cause significant migration of THP-1 cells in the trans-well migration assay, is placed in the lower compartment (Figure 1). Cells are then incubated at 37°C for a period sufficient to allow migration, e.g., 4 hours. After incubation, the cells are gently removed from the top of the filter with a pipette, 20 µl of 20 mM EDTA in simple PBS is added into each top well, and incubated for 20 minutes at 4°C. The filter is carefully flushed with media using a gentle flow, and removed. A standard curve consisting of a two-fold dilution series of THP-1 cells (in 29 µl) is prepared to accurately quantify the number of cells that have migrated. Migrated cells are stained with 3 µl of MTT stock dye solution which is added directly into each well (5 mg/ml in RPMI-1640 without phenol red, Sigma Chemical Co.) and incubated at 37°C for 4 hours. The media is carefully aspirated from each well, and the converted dye is solubilized by 20 µl of DMSO. Absorbance of converted dye is measured at a wavelength of 595 nm using an ELISA plate reader. The number of migrated cells in each well is then determined by interpolation of the standard curve (see also Imai et al.,J. Biol. Chem., 272, 15036 (1997)).
Any method suitable for counting cells can be used, for example, counting with a hemocytometer, incubation of the cells with MTT (see above), or FACS analysis. A negative control assay is also performed, using TGF-β or another non-chemokine chemoattractant (e.g., IL1β or TNFα). To assess whether the agent is cytotoxic, the same concentrations of agent are incubated with THP-1 cells. Agents which 1) are not cytotoxic at levels which inhibit migration, 2) are ineffective at inhibiting the negative control-induced migration, and 3) reduce or inhibit chemokine-induced THP-1 migration, are agents which fall within the scope of the invention.
For this assay, THP-1 cells were maintained at a density of 4 × 10^5 cells per ml in RPMI-1640 supplemented with 10% fetal calf serum + 20 µM 2-mercaptoethanol. Chemotaxis was induced in a 96-well disposable chemotaxis chamber fitted with a 5 µM polycarbonate filter (PVP free, ChemoTX, Neuroprobe Inc., Cabin John). […] The framed filter was aligned with the holes in the corner of the filter frame and placed over the wells.
(§2) Five × 10^4 THP-1 cells in 25 µl of RPMI-1640 were added to the upper compartment. Peptides were dissolved in Milli Q water and then serially diluted in culture medium. In most cases, the serially diluted peptides were added to the upper compartment of the chemotaxis chamber. The chamber was incubated at 37°C in a humidified atmosphere of 5% CO2 for 4 hours.
After incubation, the cells were gently removed from the top of the filter with a pipette, 20 µl of 20 mM EDTA in PBS was added into each top well, and the mixture was incubated for 20 minutes at 4°C. The filter was then carefully flushed with media using a gentle flow, and removed. A standard curve was prepared to accurately quantify the number of THP-1 cells that had migrated. The curve was based on a two-fold dilution series of THP-1 cells (top standard 100,000 cells in 29 µl). Cells which had migrated, and in separate wells, the cells in the standards, were stained with 3 µl of MTT stock solution which was added directly into each well (5 mg/ml in RPMI 1640 without phenol red, Sigma Chemical Co.) and incubated at 37°C for 4 hours. The media was carefully aspirated from each well, and the converted dye was solubilized by 20 µl of DMSO. […]

[3] = test system: SDF-1α induced THP-1 migration; test: THP-1 trans-well migration assay, SDF-1α as chemoattractant; assay type: cell-based, human; settings: inhibition of THP-1 migration; n.s./ns = not statistically significant
Description: as §1
(§3) For this assay, THP-1 cells were maintained at a density of 4 × 10^5 cells per ml in RPMI-1640 supplemented with 10% fetal calf serum + 20 µM 2-mercaptoethanol. Chemotaxis was induced in a 96-well disposable chemotaxis chamber fitted with a 5 µM polycarbonate filter (PVP free, ChemoTX, Neuroprobe Inc., Cabin John). Twenty-nine µl of chemoattractant (recombinant human chemokine; 50 ng/ml, i.e., 5.9 nM) or control (100 ng/ml TGFβ) was added to the lower compartment of each well. The framed filter was aligned with the holes in the corner of the filter frame and placed over the wells.
as §2
(§4) After incubation, the cells were gently removed from the top of the filter with a pipette, 20 µl of 20 mM EDTA in PBS was added into each top well, and the mixture was incubated for 20 minutes at 4°C. The filter was then carefully flushed with media using a gentle flow, and removed. A standard curve was prepared to accurately quantify the number of THP-1 cells that had migrated. The curve was based on a two-fold dilution series of THP-1 cells (top standard 100,000 cells in 29 µl). Cells which had migrated, and in separate wells, the cells in the standards, were stained with 3 µl of MTT stock solution which was added directly into each well (5 mg/ml in RPMI 1640 without phenol red, Sigma Chemical Co.) and incubated at 37°C for 4 hours. The media was carefully aspirated from each well, and the converted dye was solubilized by 20 µl of DMSO. Absorbance of converted dye was measured at a wavelength of 595 nm using an ELISA plate reader. The number of cells that had migrated in each well was determined by interpolation of the standard curve.
(§5) To investigate the receptor specificity of peptide 3 inhibition, the ED50 was determined for peptide 3(1-12)[MCP-1] (SEQ ID NO:1) inhibition of THP-1 migration induced by chemokines which signal through different receptors than MCP-1 receptors. […]

[4] = test system: MIP1α induced THP-1 migration; test: THP-1 trans-well migration assay, MIP1α as chemoattractant; assay type: cell-based, human; settings: inhibition of THP-1 migration; n.s./ns = not statistically significant
Description: as §1, §3, §2, §4, §5

gp120 = settings: ns = not significant; >100 = ED50 not determined
Description: Binding assays. Cells (either Jurkat T-cells or THP-1 cells) were grown in RPMI 1640 medium supplemented with 10% fetal calf serum, 2 mM glutamine, 20 µM β-mercaptoethanol, 100 U/ml penicillin and 100 µg/ml streptomycin and maintained between 2 × 10^5 and 1 × 10^6 cells/ml. Prior to performing a binding assay, cells were spun out (100 × g; 4 minutes) and washed 3 times in ice-cold PBS. A volume of cell suspension in PBS containing 10^6 cells (for Jurkat cells) or 4 × 10^5 cells (for THP-1 cells) was pipetted into each well of a V-bottom 96-well plate (Gibco BRL) and spun out (100 x g; 4 minutes). Triplicate wells were then resuspended in 100 µl binding medium (PBS pH 7.2 containing 0.1% fatty acid-free bovine serum albumin (BSA)) containing labeled peptide in the presence or absence of various concentrations of unlabeled peptide. The plate was then incubated on ice for 90 minutes. Cells were washed 3 times with 380 µl of ice-cold PBS, spinning out the cells each time (100 × g; 4 minutes), and resuspended in 100 µl binding medium containing streptavidin-peroxidase (Amersham International) at 1:1000 dilution. Cells were incubated for a further 15 minutes on ice to allow labeling of any bound biotinylated peptide, then washed 4 times as above. Cells were then incubated with 200 µl TMB substrate (K-Blue, Bionostics) for 20 minutes at room temperature, and the reaction stopped by addition of 50 µl 2 M HCl. The plate was spun (3,000 × g; 3 minutes) and 200 µl of the colored product was transferred to an empty 96-well ELISA plate and the absorbance at 450 nm determined. For each assay, the absorbance of a blank reaction (no peptide added) was subtracted from all readings before further analysis.
Binding experiments with labeled peptide 2 were performed with 10 nM labeled peptide in each reaction.

[5] = test system: chemokine-induced THP-1 migration; test: THP-1 trans-well migration assay, several chemokines together (averages, selectivity, pan-chemokine statements); assay type: cell-based, human; settings: average inhibitory ED50 for THP-1 migration induced by each of the chemokines
Description: To determine whether an agent inhibits a chemokine-induced activity, such as macrophage recruitment, varying amounts of the agent are mixed with cells in the presence of a known chemoattractant. […] Chemokine (such as MCP-1, MIP1α, IL8 or SDF-1α), at a concentration known to cause significant migration of THP-1 cells in the trans-well migration assay, is placed in the lower compartment (Figure 1). Cells are then incubated at 37°C for a period sufficient to allow migration, e.g., 4 hours. After incubation, the cells are gently removed from the top of the filter with a pipette, 20 µl of 20 mM EDTA in simple PBS is added into each top well, and incubated for 20 minutes at 4°C. The filter is carefully flushed with media using a gentle flow, and removed. […] The media is carefully aspirated from each well, and the converted dye is solubilized by 20 µl of DMSO.
Chemotaxis was induced in a 96-well disposable chemotaxis chamber fitted with a 5 µM polycarbonate filter (PVP free, ChemoTX, Neuroprobe Inc., Cabin John). […] The framed filter was aligned with the holes in the corner of the filter frame and placed over the wells.
Peptides were dissolved in Milli Q water and then serially diluted in culture medium. In most cases, the serially diluted peptides were added to the upper compartment of the chemotaxis chamber. The chamber was incubated at 37°C in a humidified atmosphere of 5% CO2 for 4 hours.
After incubation, the cells were gently removed from the top of the filter with a pipette, 20 µl of 20 mM EDTA in PBS was added into each top well, and the mixture was incubated for 20 minutes at 4°C. The filter was then carefully flushed with media using a gentle flow, and removed. […] The curve was based on a two-fold dilution series of THP-1 cells (top standard 100,000 cells in 29 µl). […] The media was carefully aspirated from each well, and the converted dye was solubilized by 20 µl of DMSO.
Representative chemokines included […] ("CC"), MIP-1α and RANTES, and two alpha-chemokines ("CXC"), IL-8 and SDF-1α. Additionally, to determine the specificity ofpeptide 3(1-12)[MCP-1]
The number of pluses is a qualitative indicating of the activity of each peptide in each assay.

Compound: CSKPGV [CSKPGV]
- DARC binding (µM) [1]: ns

Compound: TSSKC [TSSKC]
- DARC binding (µM) [1]: ns

Compound: SYRRI [SYRRI]
- DARC binding (µM) [1]: ns

Compound: DYFETSSQC
- DARC binding (µM) [1]: ns

Compound: CC(C)[C@@H](N)C(=O)NCC(=O)N1CCC[C@@H]1C(=O)N[C@H](CCCCN)C(=O)N[C@H](CO)C(=O)N[C@H](CS)C(=O)N[C@H](CCC(N)=O)C(=O)N[C@H](CO)C(=O)N[C@H](CO)C(=O)N[C@@H](C(=O)N[C@H](CCC(=O)O)C(=O)N[C@H](Cc1ccccc1)C(=O)N[C@H](Cc1ccc(O)cc1)C(=O)N[C@H](CC(=O)O)C(=O)O)[C@H](C)O [vgpkscqsstefyd] (H-[dV]G[dP][dK][dS][dC][dQ][dS][dS][dT][dE][dF][dY][dD]-OH)
- DARC binding (µM) [1]: ns

Compound: DYFETSSQCSKPGV [Pep2[MIP1α]]
- DARC binding (µM) [1]: ns

Compound: CC[C@@H](C)[C@@H](NC(=O)[C@H](NC(=O)[C@@H](CO)NC(=O)[C@@H](CO)NC(=O)[C@@H](CCCCN)NC(=O)[C@@H](CS)NC(=O)[C@H]1CCCN1C(=O)[C@@H](CCCCN)NC(=O)[C@@H](CCC(=O)O)NC(=O)[C@@H](C)NC(=O)[C@H](N)C(C)C)[C@H](C)O)C(=O)N[C@H](CCCNC(=N)N)C(=O)N[C@H](CCCNC(=N)N)C(=O)N[C@H](Cc1ccc(O)cc1)C(=O)N[C@H](CO)C(=O)O [LRD peptide 2(1-15)[MCP-1], Vaekpcksstirrys] (H-[dV][dA][dE][dK][dP][dC][dK][dS][dS][dT][dI][dR][dR][dY][dS]-OH; N-terminus and C-terminus assumed)
- ED50 (µM) versus MCP-1 ([2]; inhibition of THP-1 migration, n.s./ns = not statistically significant): ns
- ED50 (µM) versus SDF-1α [3]: ns
- ED50 (µM) versus MIP1α [4]: ns
- gp120 ED-50 (gp120): 3 µM

Compound: CQVWKQKPDAC [LRD-Cys13Leu4Ile11pep3[3-12]]
- Average ED50 [5]: 1000 nM
- Duffy selectivity / DARC specificity ratio ([1]; estimated ka for binding to red blood cells divided by average inhibitory ED50): 4.59

Compound: CLDPKQKWIQC [unlabeled peptide, non-labeled version of the biotinylated peptide]
- ED50 for inhibition of MCP-1 induced migration ([2]; MCP-1 at 100 ng/ml in RPMI 1640 + 10% FCS, 4 hours, 5 µm filter): about 9 µM

— patent EP2386565A2, “Compounds and methods to inhibit or augment an inflammatory response” (Cambridge Enterprise Ltd., priority 1999, dated 2000)
